Reference: patent US20250099491A1, “PREVENTION OR TREATMENT OF CARDIOVASCULAR DISEASES WITH HIGH PENETRATION PRODRUGS OF ASPIRIN AND OTHER NSAIDS” (Techfields Inc., priority 2022, published 2025)

Test system: patients with ischemic strokes
Test: Phase 2 clinical study of spray in patients with ischemic strokes
Type: in vivo, human
Conditions: for LCCA (far-wall): Maximal IMT of left common carotid artery / LCCA (near-wall): Maximal IMT of left common carotid artery / LICA (far-wall): Maximal IMT of left internal carotid artery / LICA (near-wall): Maximal IMT of left internal carotid artery / RCCA (far-wall): Maximal IMT of right common carotid artery / RCCA (near-wall): Maximal IMT of right common carotid artery / RICA (far-wall): Maximal IMT of right internal carotid artery / RICA (near-wall): Maximal IMT of right internal carotid artery: ultrasonography
Experimental: Each patient enrolled in Group A was administered the investigational drug in a double-blind manner for 16 weeks starting between 3 and 60 days after the onset of stroke symptoms (Day 1 of the study). The patients and/or their caregivers were instructed how to apply the investigational drug accurately so that patients or their caregivers would administer 20 sprays/dose of either the investigational drug or placebo twice daily (approximately every 12 hours) for a total daily dose of 280 mg of investigational drug. The 20 sprays of investigational drug were administered as follows: 4 sprays around the neck, 2 sprays to the left shoulder, 2 sprays to the right shoulder, 6 sprays to the chest, 3 sprays to the left leg, and 3 sprays to the right leg. Each spray was sprayed on a different area of the skin to reach maximum absorption. The patient would wait for at least 5 minutes to dress after the last spray so that the skin became completely dry.
Patients were asked to return to the study site at Weeks 4, 8, 12, and 16 for efficacy and safety assessments. After the Week 16 assessments had been performed, patients would start the open-label period of the study the next day and receive active treatment in an open-label manner through the end of the study (EOS) at Week 32. That is, patients who were receiving active treatment would continue to receive active treatment, and patients who were receiving placebo would switch to active treatment for the remaining 16 weeks of the study. Patients would receive only 1 dose of investigational drug on the Week 16 visit day. Patients would return to the study site at Week 24 and Week 32 (EOS) for efficacy and safety assessments. An Early Termination visit would occur if the patient was discontinued from the study prematurely. Patients would have a follow-up visit approximately 14 days after the Early Termination visit or the Week 32 (EOS) visit.
The spray bottle deposits […] of spray solution and 7 mg 2-(diethylamino)ethyl acetoxybenzoate free base per spray on the skin. Subjects were to apply each spray to a different skin area around the neck, chest, legs and arms based on the randomized dose level assigned.
The treatment was administered twice daily (approximately every 12 hours) starting on Day 1 of the study through the Week 16 visit. Each spray was sprayed on a different area of the skin to reach maximum absorption.
Group A administered the 20 sprays of investigational drug as follows: 4 sprays around the neck, 2 sprays to the left shoulder, 2 sprays to the right shoulder, 6 sprays to the chest, 3 sprays to the left leg, and 3 sprays to the right leg twice daily for a total of 40 sprays (280 mg)/day. Each spray was sprayed on a different area of the skin to reach maximum absorption.
Group B administered the investigational drug as follows: 2 sprays to the front of the neck, 1 spray to the left side of the neck, 1 spray to the right side of the neck, 6 sprays to the chest close to the neck twice daily for a total of 20 sprays (140 mg)/day. Each spray was sprayed on a different area of the skin to reach maximum absorption.
Group C administered the investigational drug as follows: 1 spray to the front of the neck, 1 spray to the left side of the neck, 1 spray to the right side of the neck, 2 sprays to the chest twice daily for a total of 10 sprays (70 mg/day). Each spray was sprayed on a different area of the skin to reach maximum absorption.
The primary efficacy endpoint is the mRS score at Week 16 dichotomized as ‘success’ (0 to 2) or failure (>2) for all randomized patients at Week 16.
The mRS score was assessed at screening; Day 1 (baseline); Weeks 4, 8, 12, 16, 24, and 32; Early Termination Visit (if applicable) and Follow-Up Visit.
The mRS score measures the patient's functional level of activity and is dichotomized as a favorable outcome (score=0-2) versus unfavorable (score […]). […]

[1] = 5 Sprays (35 mg/dose bid), Baseline
[2] = 5 Sprays (35 mg/dose bid), Week 4
[3] = 5 Sprays (35 mg/dose bid), Week 8
[4] = 5 Sprays (35 mg/dose bid), Week 16
[5] = 5 Sprays (35 mg/dose bid), Week 24
[6] = 5 Sprays (35 mg/dose bid), Week 32
[7] = 5 Sprays (35 mg/dose bid), baseline
[8] = 10 Sprays (70 mg/dose bid), Baseline
[9] = 10 Sprays (70 mg/dose bid), Week 4
[10] = 10 Sprays (70 mg/dose bid), Week 8
[11] = 10 Sprays (70 mg/dose bid), Week 16
[12] = 10 Sprays (70 mg/dose bid), Week 24
[13] = 10 Sprays (70 mg/dose bid), Week 32
[14] = 10 Sprays (70 mg/dose bid), baseline
[15] = 20 Sprays (140 mg/dose bid), Baseline
[16] = 20 Sprays (140 mg/dose bid), Week 4
[17] = 20 Sprays (140 mg/dose bid), Week 8
[18] = 20 Sprays (140 mg/dose bid), Week 16
[19] = 20 Sprays (140 mg/dose bid), Week 24
[20] = 20 Sprays (140 mg/dose bid), Week 32
[21] = 20 Sprays (140 mg/dose bid), baseline
[22] = during the study, all three doses

## CCN(CC)CCOC(=O)c1ccccc1OC(C)=O.Cl [Compound-1]
35 mg, 70 mg, and 140 mg BID, topical spray
  safety and tolerability: safe and were generally well tolerated
[1]
  LCCA (far-wall): Maximal IMT of left common carotid artery: 6.2 ± 1.6 mm
  LCCA (near-wall): Maximal IMT of left common carotid artery: 7.3 ± 2.0 mm
  LICA (far-wall): Maximal IMT of left internal carotid artery: 5.3 ± 1.3 mm
  LICA (near-wall): Maximal IMT of left internal carotid artery: 6.3 ± 2.1 mm
  RCCA (far-wall): Maximal IMT of right common carotid artery: 7.1 ± 2.2 mm
  RCCA (near-wall): Maximal IMT of right common carotid artery: 6.9 ± 2.1 mm
  RICA (far-wall): Maximal IMT of right internal carotid artery: 4.1 ± 1.4 mm
  RICA (near-wall): Maximal IMT of right internal carotid artery: 4.7 ± 1.5 mm
[2]
  Modified Rankin Scale Score (mRS): 3.1 ± 0.5
  National Institute of Health Stroke Scale: 5.5 ± 1.7
[3]
  Modified Rankin Scale Score (mRS): 2.9 ± 0.3
  National Institute of Health Stroke Scale: 5.3 ± 1.5
[4]
  Modified Rankin Scale Score (mRS): 2.7 ± 0.5
  National Institute of Health Stroke Scale: 4.1 ± 1.0
  LCCA (far-wall): Maximal IMT of left common carotid artery: 2.7 ± 1.4 mm
  LCCA (near-wall): Maximal IMT of left common carotid artery: 2.3 ± 1.3 mm
  LICA (far-wall): Maximal IMT of left internal carotid artery: 1.5 ± 1.1 mm
  LICA (near-wall): Maximal IMT of left internal carotid artery: 1.6 ± 1.3 mm
  RCCA (far-wall): Maximal IMT of right common carotid artery: 2.5 ± 1.1 mm
  RCCA (near-wall): Maximal IMT of right common carotid artery: 2.1 ± 0.9 mm
  RICA (far-wall): Maximal IMT of right internal carotid artery: 1.6 ± 0.9 mm
  RICA (near-wall): Maximal IMT of right internal carotid artery: 1.5 ± 1.2 mm
[5]
  Modified Rankin Scale Score (mRS): 2.5 ± 0.5
  National Institute of Health Stroke Scale: 3.4 ± 0.8
[6]
  Modified Rankin Scale Score (mRS): 2.4 ± 0.5
  National Institute of Health Stroke Scale: 2.9 ± 0.6
  LCCA (far-wall): Maximal IMT of left common carotid artery: 2.5 ± 0.7 mm
  LCCA (near-wall): Maximal IMT of left common carotid artery: 2.1 ± 0.7 mm
  LICA (far-wall): Maximal IMT of left internal carotid artery: 1.3 ± 0.7 mm
  LICA (near-wall): Maximal IMT of left internal carotid artery: 1.2 ± 1.0 mm
  RCCA (far-wall): Maximal IMT of right common carotid artery: 2.6 ± 0.9 mm
  RCCA (near-wall): Maximal IMT of right common carotid artery: 2.3 ± 0.8 mm
  RICA (far-wall): Maximal IMT of right internal carotid artery: 1.1 ± 0.7 mm
  RICA (near-wall): Maximal IMT of right internal carotid artery: 1.2 ± 0.6 mm
[7]
  Modified Rankin Scale Score (mRS): 3.5 ± 0.5
  National Institute of Health Stroke Scale: 6.0 ± 2.2
[8]
  LCCA (far-wall): Maximal IMT of left common carotid artery: 7.1 ± 1.7 mm
  LCCA (near-wall): Maximal IMT of left common carotid artery: 7.0 ± 1.5 mm
  LICA (far-wall): Maximal IMT of left internal carotid artery: 5.8 ± 1.5 mm
  LICA (near-wall): Maximal IMT of left internal carotid artery: 6.1 ± 1.3 mm
  RCCA (far-wall): Maximal IMT of right common carotid artery: 7.9 ± 2.1 mm
  RCCA (near-wall): Maximal IMT of right common carotid artery: 7.2 ± 1.7 mm
  RICA (far-wall): Maximal IMT of right internal carotid artery: 4.3 ± 1.5 mm
  RICA (near-wall): Maximal IMT of right internal carotid artery: 5.1 ± 1.2 mm
[9]
  Modified Rankin Scale Score (mRS): 2.5 ± 0.5
  National Institute of Health Stroke Scale: 4.9 ± 1.5
[10]
  Modified Rankin Scale Score (mRS): 2.0 ± 0.5
  National Institute of Health Stroke Scale: 3.7 ± 1.1
[11]
  Modified Rankin Scale Score (mRS): 1.6 ± 0.5
  National Institute of Health Stroke Scale: 2.3 ± 0.8
  LCCA (far-wall): Maximal IMT of left common carotid artery: 1.8 ± 0.7 mm
  LCCA (near-wall): Maximal IMT of left common carotid artery: 1.3 ± 0.7 mm
  LICA (far-wall): Maximal IMT of left internal carotid artery: 0.7 ± 0.3 mm
  LICA (near-wall): Maximal IMT of left internal carotid artery: 0.9 ± 0.5 mm
  RCCA (far-wall): Maximal IMT of right common carotid artery: 1.5 ± 0.6 mm
  RCCA (near-wall): Maximal IMT of right common carotid artery: 1.6 ± 0.8 mm
  RICA (far-wall): Maximal IMT of right internal carotid artery: 0.8 ± 0.3 mm
  RICA (near-wall): Maximal IMT of right internal carotid artery: 0.9 ± 0.5 mm
[12]
  Modified Rankin Scale Score (mRS): 1.5 ± 0.5
  National Institute of Health Stroke Scale: 1.6 ± 0.6
[13]
  Modified Rankin Scale Score (mRS): 1.4 ± 0.5
  National Institute of Health Stroke Scale: 1.3 ± 0.4
  LCCA (far-wall): Maximal IMT of left common carotid artery: 1.7 ± 0.8 mm
  LCCA (near-wall): Maximal IMT of left common carotid artery: 1.2 ± 0.6 mm
  LICA (far-wall): Maximal IMT of left internal carotid artery: 0.6 ± 0.3 mm
  LICA (near-wall): Maximal IMT of left internal carotid artery: 0.7 ± 0.4 mm
  RCCA (far-wall): Maximal IMT of right common carotid artery: 1.3 ± 0.8 mm
  RCCA (near-wall): Maximal IMT of right common carotid artery: 1.3 ± 0.7 mm
  RICA (far-wall): Maximal IMT of right internal carotid artery: 0.8 ± 0.2 mm
  RICA (near-wall): Maximal IMT of right internal carotid artery: 0.7 ± 0.4 mm
[14]
  Modified Rankin Scale Score (mRS): 3.5 ± 0.5
  National Institute of Health Stroke Scale: 5.9 ± 2.0
[15]
  LCCA (far-wall): Maximal IMT of left common carotid artery: 6.5 ± 2.0 mm
  LCCA (near-wall): Maximal IMT of left common carotid artery: 7.6 ± 1.6 mm
  LICA (far-wall): Maximal IMT of left internal carotid artery: 5.7 ± 1.7 mm
  LICA (near-wall): Maximal IMT of left internal carotid artery: 5.6 ± 1.7 mm
  RCCA (far-wall): Maximal IMT of right common carotid artery: 8.8 ± 2.3 mm
  RCCA (near-wall): Maximal IMT of right common carotid artery: 7.5 ± 1.8 mm
  RICA (far-wall): Maximal IMT of right internal carotid artery: 4.7 ± 1.6 mm
  RICA (near-wall): Maximal IMT of right internal carotid artery: 4.9 ± 1.3 mm
[16]
  Modified Rankin Scale Score (mRS): 2.1 ± 0.5
  National Institute of Health Stroke Scale: 4.6 ± 1.6
[17]
  Modified Rankin Scale Score (mRS): 1.8 ± 0.4
  National Institute of Health Stroke Scale: 3.0 ± 1.1
[18]
  Modified Rankin Scale Score (mRS): 1.4 ± 0.5
  National Institute of Health Stroke Scale: 1.9 ± 0.9
  LCCA (far-wall): Maximal IMT of left common carotid artery: 1.2 ± 0.6 mm
  LCCA (near-wall): Maximal IMT of left common carotid artery: 1.3 ± 0.5 mm
  LICA (far-wall): Maximal IMT of left internal carotid artery: 0.6 ± 0.4 mm
  LICA (near-wall): Maximal IMT of left internal carotid artery: 0.7 ± 0.3 mm
  RCCA (far-wall): Maximal IMT of right common carotid artery: 1.4 ± 0.3 mm
  RCCA (near-wall): Maximal IMT of right common carotid artery: 1.2 ± 0.5 mm
  RICA (far-wall): Maximal IMT of right internal carotid artery: 0.6 ± 0.2 mm
  RICA (near-wall): Maximal IMT of right internal carotid artery: 0.8 ± 0.3 mm
[19]
  Modified Rankin Scale Score (mRS): 1.3 ± 0.5
  National Institute of Health Stroke Scale: 1.4 ± 0.6
[20]
  Modified Rankin Scale Score (mRS): 1.3 ± 0.4
  National Institute of Health Stroke Scale: 1.1 ± 0.3
  LCCA (far-wall): Maximal IMT of left common carotid artery: 1.1 ± 0.7 mm
  LCCA (near-wall): Maximal IMT of left common carotid artery: 0.8 ± 0.5 mm
  LICA (far-wall): Maximal IMT of left internal carotid artery: 0.5 ± 0.3 mm
  LICA (near-wall): Maximal IMT of left internal carotid artery: 0.6 ± 0.3 mm
  RCCA (far-wall): Maximal IMT of right common carotid artery: 1.0 ± 0.5 mm
  RCCA (near-wall): Maximal IMT of right common carotid artery: 0.9 ± 0.4 mm
  RICA (far-wall): Maximal IMT of right internal carotid artery: 0.5 ± 0.3 mm
  RICA (near-wall): Maximal IMT of right internal carotid artery: 0.6 ± 0.5 mm
[21]
  Modified Rankin Scale Score (mRS): 3.6 ± 0.5
  National Institute of Health Stroke Scale: 6.1 ± 2.3
[22]
  Mean and median blood pressures: remained unchanged
  upper GI tract ulcer complication (bleeding episode, perforation, or gastric outlet obstruction): No notable
mild, all three doses
  skin irritation, total incidences: 6
Neck arteries by ultrasonography, spray vs placebo
  improvement of atherosclerosis: can reverse atherosclerosis
Spray vs placebo
  functional recovery post strokes (results of BI, words): can improve the functional recovery post strokes
  functional recovery post strokes (results of NIHSS, words): can improve the functional recovery post strokes
  functional recovery post strokes (results of mRS, words): can improve the functional recovery post strokes
Very mild, none appeared to be drug related, all three doses
  Gastrointestinal disorders, incidences in the study: 15
